Values quoted from earlier work in US20140294799A1, “USE OF COMPOSITIONS HAVING A LOW POLYAMINE CONTENT IN THE PREVENTION OR TREATMENT OF ADVERSE EFFECTS LINKED TO CANCER TREATMENT” (NUTRIALYS MEDICAL NUTRITION SA, priority 2011, published 2014).

System: skin of irradiated animals
Settings: topical application to the skin of irradiated animals

SMILES	effect on dermatitis	effect on alopecia
N=C(N)NCCCCN [agmatine]	reduce dermatitis	
NCCCNCCCCNCCCN [spermine]		effective in the treatment of alopecia
